Reference: ChEMBL document CHEMBL1177826, “Synthesis of isosteric selenium analog of the PPARbeta/delta agonist GW501516 and comparison of biological activity” (Bioorg Med Chem Lett, 2010)
Calls of active or inactive are those of the source. The calls are words filed in the database; no cut-off is given here.

Experiments:
[1] = target: T1, PPAR delta/gamma (Homo sapiens) (UniProt P37231+Q03181); assay: Activation of […] in human HaCaT cells assessed as induction of ANGPTL4 expression by PCR; format: cell-based
[2] = target: T1, PPAR delta/gamma (Homo sapiens); assay: Activation of […] in human HaCaT cells assessed as inhibition of cellular proliferation at 10 uM after 72 hrs; format: cell-based

T1 sequence (P37231 whole entry, looked up): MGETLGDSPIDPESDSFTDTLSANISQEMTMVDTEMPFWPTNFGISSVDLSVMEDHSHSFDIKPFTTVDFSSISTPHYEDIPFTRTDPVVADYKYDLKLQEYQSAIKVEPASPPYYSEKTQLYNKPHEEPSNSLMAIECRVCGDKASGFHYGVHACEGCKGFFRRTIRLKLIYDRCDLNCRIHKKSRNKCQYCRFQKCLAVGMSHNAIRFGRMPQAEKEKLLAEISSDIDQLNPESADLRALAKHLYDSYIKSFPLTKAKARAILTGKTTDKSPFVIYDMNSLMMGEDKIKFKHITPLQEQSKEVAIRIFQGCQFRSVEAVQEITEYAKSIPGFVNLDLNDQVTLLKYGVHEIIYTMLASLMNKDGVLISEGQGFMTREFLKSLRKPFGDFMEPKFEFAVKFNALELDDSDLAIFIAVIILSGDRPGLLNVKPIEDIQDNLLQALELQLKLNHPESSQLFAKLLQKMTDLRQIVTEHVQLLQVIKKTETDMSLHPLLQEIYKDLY
T1 sequence (Q03181 whole entry, looked up): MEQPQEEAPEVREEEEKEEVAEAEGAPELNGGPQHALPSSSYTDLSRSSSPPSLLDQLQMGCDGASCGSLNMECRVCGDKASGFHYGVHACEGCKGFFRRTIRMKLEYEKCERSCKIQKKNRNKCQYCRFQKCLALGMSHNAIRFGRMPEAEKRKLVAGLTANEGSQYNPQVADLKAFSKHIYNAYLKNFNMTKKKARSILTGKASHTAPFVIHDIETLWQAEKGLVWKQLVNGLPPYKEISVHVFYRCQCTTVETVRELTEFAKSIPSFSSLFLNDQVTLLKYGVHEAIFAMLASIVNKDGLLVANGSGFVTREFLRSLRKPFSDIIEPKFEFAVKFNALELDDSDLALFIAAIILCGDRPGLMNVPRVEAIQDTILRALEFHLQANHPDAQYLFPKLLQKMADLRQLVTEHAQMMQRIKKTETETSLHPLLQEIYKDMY

For `Cc1cc([Se]Cc2sc(-c3ccc(C(F)(F)F)cc3)nc2C)ccc1OCC(=O)O`, the Activity [1] was “Active” and the Activity [2] was “Active”.
